Data reported in patent US11260049B2, “TRPV4 antagonists” (GlaxoSmithKline Intellectual Property (No. 2) Limited, priority 2016, dated 2022).

What follows are compounds tested against human TRPV4 (Homo sapiens (Human), UniProt Q9HBA0) (assay: FLIPR assay for hTRPV4 expressed in BHK cells). Settings: inhibition of Agonist Compound (EC80)-induced calcium signal; BHK/AC9 cells expressing human TRPV4; read-out: IC50.
Chain of human TRPV4 (Q9HBA0 whole entry): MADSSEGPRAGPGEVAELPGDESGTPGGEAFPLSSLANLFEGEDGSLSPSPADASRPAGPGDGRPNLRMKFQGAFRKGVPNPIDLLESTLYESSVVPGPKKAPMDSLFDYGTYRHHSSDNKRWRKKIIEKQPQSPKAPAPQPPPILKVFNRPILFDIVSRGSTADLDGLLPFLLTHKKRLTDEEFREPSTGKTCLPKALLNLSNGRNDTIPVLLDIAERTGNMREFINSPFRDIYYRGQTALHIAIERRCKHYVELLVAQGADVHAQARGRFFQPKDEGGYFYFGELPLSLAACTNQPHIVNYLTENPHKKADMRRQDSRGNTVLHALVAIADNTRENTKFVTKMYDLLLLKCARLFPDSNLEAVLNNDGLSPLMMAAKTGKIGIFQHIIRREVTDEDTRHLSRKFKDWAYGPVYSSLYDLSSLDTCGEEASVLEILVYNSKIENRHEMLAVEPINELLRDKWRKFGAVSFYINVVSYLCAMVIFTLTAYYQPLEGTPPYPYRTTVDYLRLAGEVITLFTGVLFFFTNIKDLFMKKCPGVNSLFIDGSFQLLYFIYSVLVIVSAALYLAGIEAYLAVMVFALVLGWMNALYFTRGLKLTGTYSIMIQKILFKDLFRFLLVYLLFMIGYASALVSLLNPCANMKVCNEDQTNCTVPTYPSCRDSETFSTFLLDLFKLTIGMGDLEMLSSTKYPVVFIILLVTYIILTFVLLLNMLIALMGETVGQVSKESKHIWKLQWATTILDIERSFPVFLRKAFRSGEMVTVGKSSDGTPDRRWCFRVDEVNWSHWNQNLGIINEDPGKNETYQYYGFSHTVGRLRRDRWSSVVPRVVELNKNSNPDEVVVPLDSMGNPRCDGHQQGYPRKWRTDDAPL
Type: cell-based
Method: FLIPR Assay for hTRPV4 Expressed in BHK Cells:
TRPV4 channel activation results in an influx of divalent and monovalent cations including calcium. The resulting changes in intracellular calcium were monitored using a calcium specific fluorescent dye Fluo-4 (MDS Analytical Technologies). BHK/AC9 cells transduced with BacMam virus expressing the human TRPV4 gene at a MOI of 78 were plated in a 384 well poly-D lysine coated plate (15,000 cells/well in 50 μL culture medium containing DMEM/F12 with 15 mM HEPES, 10% FBS, 1% Penicillin-Streptomycin and 1% L-glutamine). Cells were incubated for 24 hours at 37° C. and 5% CO2. Culture medium was then aspirated using a Tecan plate-washer and replaced with 20 μL/well of dye loading buffer: HBSS, 500 μM Brilliant Black (MDS Analytical Technologies), and 2 μM Fluo-4 AM. Dye loaded plates were then incubated in the dark at room temperature for 1˜1.5 hours.
`N#Cc1ccc(S(=O)(=O)[C@H]2CN(S(=O)(=O)c3ccc(CF)cc3Cl)C[C@@]2(O)CO)cc1` [Example 44, 4-(((3S,4R)-1-((2-chloro-4-(fluoromethyl)phenyl)sulfonyl)-4-hydroxy-4-(hydroxymethyl)pyrrolidin-3-yl)sulfonyl)benzonitrile] gave an IC50 of 10 to 100 nM.
`N#Cc1ccc(S(=O)(=O)N2C[C@H](S(=O)(=O)c3ccc(Cl)cc3)[C@](O)(CN)C2)cc1` [Example 126, 4-(((3S,4S)-3-(aminomethyl)-4-((4-chlorophenyl)sulfonyl)-3-hydroxypyrrolidin-1-yl)sulfonyl)benzonitrile] was tested, and the IC50 was 10 to 100 nM.
`N#Cc1ccc(S(=O)(=O)N2C[C@H](S(=O)(=O)c3ccc(Cl)cn3)[C@](O)(CN)C2)c(Cl)c1` [Example 121, 4-(((3S,4S)-3-(aminomethyl)-4-((5-chloropyridin-2-yl)sulfonyl)-3-hydroxypyrrolidin-1-yl)sulfonyl)-3-chlorobenzonitrile] gave an IC50 of 0.1 to 10 nM.
Compound `N#Cc1cc(C(F)(F)F)ccc1S(=O)(=O)N1C[C@H](S(=O)(=O)c2ccc(F)c(F)c2)[C@](O)(CO)C1` [Example 93, 2-(((3R,4S)-4-((3,4-difluorophenyl)sulfonyl)-3-hydroxy-3-(hydroxymethyl)pyrrolidin-1-yl)sulfonyl)-5-(trifluoromethyl)benzonitrile] has an IC50 of 10 to 100 nM.
`N#Cc1ccc(S(=O)(=O)N2C[C@H](S(=O)(=O)c3ccc(Br)cn3)[C@](O)(CO)C2)c(Cl)c1` [Example 113, 4-(((3R,4S)-4-((5-bromopyridin-2-yl)sulfonyl)-3-hydroxy-3-(hydroxymethyl)pyrrolidin-1-yl)sulfonyl)-3-chlorobenzonitrile] was tested, and the IC50 was 0.1 to 10 nM.
For `C[C@@H](O)[C@]1(O)CN(S(=O)(=O)c2ccc(C#N)cc2Cl)C[C@@H]1S(=O)(=O)c1ccc(Cl)cn1` [Example 120, 3-chloro-4-(((3R,4S)-4-((5-chloropyridin-2-yl)sulfonyl)-3-hydroxy-3-((R)-1-hydroxyethyl)pyrrolidin-1-yl)sulfonyl)benzonitrile], the IC50 was 0.1 to 10 nM.
Work on `N#Cc1ccc(S(=O)(=O)[C@H]2CN(S(=O)(=O)c3ccc(Cl)cc3Cl)C[C@@]2(O)CO)cc1F` [Example 83, 4-(((3S,4R)-1-((2,4-dichlorophenyl)sulfonyl)-4-hydroxy-4-(hydroxymethyl)pyrrolidin-3-yl)sulfonyl)-2-fluorobenzonitrile] yielded an IC50 of 0.1 to 10 nM.
Work on `CNC[C@]1(O)CN(S(=O)(=O)c2ccc(C#N)cc2Cl)C[C@@H]1S(=O)(=O)c1ccc(Cl)cc1` [Example 124, 3-chloro-4-(((3S,4S)-4-((4-chlorophenyl)sulfonyl)-3-hydroxy-3-((methylamino)methyl)pyrrolidin-1-yl)sulfonyl)benzonitrile] yielded an IC50 of 0.1 to 10 nM.
Work on `O=S(=O)(c1ccc(Cl)c(F)c1)[C@H]1CN(S(=O)(=O)c2ccc(Cl)cc2Cl)C[C@]1(O)CO` [Example 76, (3S,4S)-4-((4-chloro-3-fluorophenyl)sulfonyl)-1-((2,4-dichlorophenyl)sulfonyl)-3-(hydroxymethyl)pyrrolidin-3-ol] yielded an IC50 of 10 to 100 nM.
For `O=S(=O)(c1ccc(Cl)c(F)c1)[C@H]1CN(S(=O)(=O)c2ccc(C(F)(F)F)cc2Cl)C[C@@]1(O)CO` [Example 98, (3R,4S)-4-((4-chloro-3-fluorophenyl)sulfonyl)-1-((2-chloro-4-(trifluoromethyl)phenyl)sulfonyl)-3-(hydroxymethyl)pyrrolidin-3-ol], the IC50 was 10 to 100 nM.
Work on `N#Cc1cc(Cl)ccc1S(=O)(=O)N1C[C@H](S(=O)(=O)c2ccc(Cl)cc2)[C@](O)(CO)C1` [Example 17, 5-chloro-2-(((3R,4S)-4-((4-chlorophenyl)sulfonyl)-3-hydroxy-3-(hydroxymethyl)pyrrolidin-1-yl)sulfonyl)benzonitrile] yielded an IC50 of 0.1 to 10 nM.
In the case of `N#Cc1ccc(S(=O)(=O)N2C[C@H](S(=O)(=O)c3ccc(C(F)(F)F)nc3)[C@](O)(CO)C2)c(Br)c1` [Example 39, 3-bromo-4-(((3R,4S)-3-hydroxy-3-(hydroxymethyl)-4-((6-(trifluoromethyl)pyridin-3-yl)sulfonyl)pyrrolidin-1-yl)sulfonyl)benzonitrile], the IC50 is reported as 10 to 100 nM.
With `O=S(=O)(c1ccc(Cl)cc1)[C@H]1CN(S(=O)(=O)c2ccc(C(F)F)cc2Cl)C[C@@]1(O)CO` [Example 37, (3R,4S)-1-((2-chloro-4-(difluoromethyl)phenyl)sulfonyl)-4-((4-chlorophenyl)sulfonyl)-3-(hydroxymethyl)pyrrolidin-3-ol] the IC50 was 10 to 100 nM.
With `N#Cc1ccc(S(=O)(=O)N2C[C@H](S(=O)(=O)c3ccc(Br)cn3)[C@@](O)(CO)C2)c(Cl)c1` [Example 81, 4-(((3S,4S)-4-((5-bromopyridin-2-yl)sulfonyl)-3-hydroxy-3-(hydroxymethyl)pyrrolidin-1-yl)sulfonyl)-3-chlorobenzonitrile] the IC50 was 10 to 100 nM.
`O=S(=O)(c1ccc(Cl)cc1)[C@H]1CN(S(=O)(=O)c2cccnc2OC(F)F)C[C@@]1(O)CO` [Example 67, (3R,4S)-4-((4-chlorophenyl)sulfonyl)-1-((2-(difluoromethoxy)pyridin-3-yl)sulfonyl)-3-(hydroxymethyl)pyrrolidin-3-ol] was tested, and the IC50 was 10 to 100 nM.
In the case of `N#Cc1ccc(S(=O)(=O)[C@H]2CN(S(=O)(=O)c3ccc(C(F)(F)F)cc3Cl)C[C@]2(O)CO)cc1Cl` [Example 80, 2-chloro-4-(((3S,4S)-1-((2-chloro-4-(trifluoromethyl)phenyl)sulfonyl)-4-hydroxy-4-(hydroxymethyl)pyrrolidin-3-yl)sulfonyl)benzonitrile], the IC50 is reported as 10 to 100 nM.
`N#Cc1ccc(S(=O)(=O)[C@H]2CN(S(=O)(=O)c3ccc(C(F)(F)F)cc3Cl)C[C@@]2(O)CO)cc1` [Example 89, 4-(((3S,4R)-1-((2-chloro-4-(trifluoromethyl)phenyl)sulfonyl)-4-hydroxy-4-(hydroxymethyl)pyrrolidin-3-yl)sulfonyl)benzonitrile] gave an IC50 of 10 to 100 nM.
In the case of `N#Cc1ccc(S(=O)(=O)N2C[C@H](S(=O)(=O)c3ccc(Br)cc3)[C@@](O)(CO)C2)c(Cl)c1` [Example 24, 4-(((3S,4S)-4-((4-bromophenyl)sulfonyl)-3-hydroxy-3-(hydroxymethyl)pyrrolidin-1-yl)sulfonyl)-3-chlorobenzonitrile], the IC50 is reported as 10 to 100 nM.
With `CCOc1cc(C#N)ccc1S(=O)(=O)N1C[C@H](S(=O)(=O)c2ccc(Cl)cc2)[C@](O)(CO)C1` [Example 49, 4-(((3R,4S)-4-((4-chlorophenyl)sulfonyl)-3-hydroxy-3-(hydroxymethyl)pyrrolidin-1-yl)sulfonyl)-3-ethoxybenzonitrile] the IC50 was 10 to 100 nM.
For `C[C@H](O)[C@]1(O)CN(S(=O)(=O)c2ccc(C#N)cc2Cl)C[C@@H]1S(=O)(=O)c1ccc(Cl)cn1` [Example 119, 3-chloro-4-(((3R,4S)-4-((5-chloropyridin-2-yl)sulfonyl)-3-hydroxy-3-((S)-1-hydroxyethyl)pyrrolidin-1-yl)sulfonyl)benzonitrile], the IC50 was 0.1 to 10 nM.
Work on `N#Cc1ccc(S(=O)(=O)[C@H]2CN(S(=O)(=O)c3ccc(C(F)(F)F)cc3Cl)C[C@@]2(O)CO)cc1Cl` [Example 101, 2-chloro-4-(((3S,4R)-1-((2-chloro-4-(trifluoromethyl)phenyl)sulfonyl)-4-hydroxy-4-(hydroxymethyl)pyrrolidin-3-yl)sulfonyl)benzonitrile] yielded an IC50 of 10 to 100 nM.
With `N#Cc1cc(F)c(S(=O)(=O)[C@H]2CN(S(=O)(=O)c3ccc(Cl)cc3Cl)C[C@@]2(O)CO)cc1F` [Example 95, 4-(((3S,4R)-1-((2,4-dichlorophenyl)sulfonyl)-4-hydroxy-4-(hydroxymethyl)pyrrolidin-3-yl)sulfonyl)-2,5-difluorobenzonitrile] the IC50 was 10 to 100 nM.
`Cc1cc(C#N)ccc1S(=O)(=O)N1C[C@H](S(=O)(=O)c2ccc(C#N)c(F)c2)[C@](O)(CO)C1` [Example 70, 4-(((3S,4R)-1-((4-cyano-2-methylphenyl)sulfonyl)-4-hydroxy-4-(hydroxymethyl)pyrrolidin-3-yl)sulfonyl)-2-fluorobenzonitrile] showed an IC50 of 0.1 to 10 nM.
Compound `Cc1ccc(S(=O)(=O)N2C[C@H](S(=O)(=O)c3ccc(C#N)cc3)[C@](O)(CO)C2)c(Cl)c1` [Example 58, 4-(((3S,4R)-1-((2-chloro-4-methylphenyl)sulfonyl)-4-hydroxy-4-(hydroxymethyl)pyrrolidin-3-yl)sulfonyl)benzonitrile] has an IC50 of 10 to 100 nM.
Compound `CCCc1ccc(S(=O)(=O)[C@H]2CN(S(=O)(=O)c3ccc(C#N)cc3Cl)C[C@@]2(O)CO)cc1` [Example 106, 3-chloro-4-(((3R,4S)-3-hydroxy-3-(hydroxymethyl)-4-((4-propylphenyl)sulfonyl)pyrrolidin-1-yl)sulfonyl)benzonitrile] has an IC50 of 10 to 100 nM.
`N#Cc1ccc(S(=O)(=O)N2C[C@H](S(=O)(=O)c3ccc(Cl)cc3)[C@](O)(CO)C2)c(Cl)c1` [Example 2, 3-chloro-4-(((3R,4S)-4-((4-chlorophenyl)sulfonyl)-3-hydroxy-3-(hydroxymethyl)pyrrolidin-1-yl)sulfonyl)benzonitrile] gave an IC50 of 0.1 to 10 nM.
In the case of `O=S(=O)(c1ccc(C(F)(F)F)cc1)[C@H]1CN(S(=O)(=O)c2ccc(C(F)(F)F)cc2Cl)C[C@@]1(O)CO` [Example 96, (3R,4S)-1-((2-chloro-4-(trifluoromethyl)phenyl)sulfonyl)-3-(hydroxymethyl)-4-((4-(trifluoromethyl)phenyl)sulfonyl)pyrrolidin-3-ol], the IC50 is reported as 10 to 100 nM.
For `N#Cc1ccc(S(=O)(=O)[C@H]2CN(S(=O)(=O)c3cc(F)c(Cl)cc3Cl)C[C@@]2(O)CO)cc1` [Example 63, 4-(((3S,4R)-1-((2,4-dichloro-5-fluorophenyl)sulfonyl)-4-hydroxy-4-(hydroxymethyl)pyrrolidin-3-yl)sulfonyl)benzonitrile], the IC50 was 10 to 100 nM.
